Measurements published in patent publication US4243678A, “Acylhydrocarbylaminoalkanoic acids, compositions and uses” (Byk Gulden Lomberg Chemische Fabrik GmbH, priority 1977, dated 1981).
Read-outs that look alike come from different tables or passages of the source.

What was measured:
[1] = Influence on pancreatic secretion of the narcotized rat; assay type: in vivo, rat (male Sprague-Dawley); details: in vivo, LD50 mouse i.p. / ED50 rat i.d.
Text: (§1) Male Sprague-Dawley rats (body weight from 250 to 300 g) are narcotized with 1.2 g/kg urethane i.m. Then the abdominal cavity is opened medially, the bile duct is ligatured shortly above the place where it leads into the duodenum and also near to the hepatic duct, and both sections are catheterized towards the liver.
(§2) As in the rat all the pancreatic ducts lead out into the central section of the bile duct; it is possible in this way to discharge the pancreatic secretion separately from the distal (ligatured) section and the bile separately from the proximal section of the bile duct.
(§3) The quantities of pancreatic juice and bile juice obtained are measured at intervals of 30 minutes over a period from 2 hours before to 3 hours after the intraduodenal (V. jugularis externa) administration of the compounds to be tested (quantity of liquid administered 5 ml/kg).
(§4) The body temperature of the animals is maintained at 36° to 38° C. by means of electric blankets and radiation; the temperature is monitored rectally.
(§5) The liquid volumes of the 30-minute fractions after the administration of the substance are related in each case to the quantity of bile or pancreatic juice secreted prior to the application of the substance (=100%, mean of the last two measurements). The maximum percentage increase in the pancreatic or bile secretion is represented in dependence upon dose, and from this the ED50 is determined by interpolation.

[2] = test system: pancreatic secretion; experiment: as above; assay type: in vivo, rat (male Sprague-Dawley); details: 0.5 h
Text: as §1, §2, §3, §4, §5

[3] = Determination of toxicity (lethal action on the mouse after intraperitoneal application); assay type: in vivo; details: in vivo, ip
Protocol: The toxicity investigations are carried out on female NMRI mice (body weight 22 to 26 g). The animals (5 animals per dose) are given food and water ad lib. Different doses of the substances are administered intraperitoneally. The duration of observation is 14 days. The LD50, i.e. the dose at which 50% of the animals die, is determined graphically from the dose/effect curve.

[4] = Antihepatotoxic effect: duration of hexobarbital sleep of the rat after liver damage by CCl4; details: rat, in vivo
Protocol: (§6) The compounds to be tested are administered 1 hour prior to the administration of CCl4 orally in a liquid volume of 10 ml/kg.
(§7) The antihepatotoxic effect of the compounds to be tested (sodium salts in aqueous solution) is determined by the reduction of the prolongation of sleeping period caused by the CCl4 liver cell damage in the groups treated, as compared with the prolongation of the sleeping period of the CCl4 control group (=100%). […]

[5] = test system: liver damage by CCl4; experiment: as above; details: Rattus norvegicus, po; for ED25: read-out: ED25 antihepatotoxic effect (shortens hexobarbital narcosis by 25%)
Protocol: as §6, §7

[6] = test system: glucose formation from lactate and pyruvate in isolated perfused liver; experiment: Inhibition of the formation of glucose from lactate and pyruvate in the isolated perfused rat liver; set-up: species or system rat (male Sprague-Dawley); details: for Glucose formation, % change: isolated perfused liver of fasting rats; for ED50 inhibition of formation of glucose from lactate and pyruvate: from 4 concentrations, 0.02 to 1.00 mmol/liter
Protocol: For this purpose young male Sprague-Dawley rats (160 to 200 g) are used. The rats are kept in cages of up to 5 animals in a temperature-controlled room (23° C.) with a fixed day/night rhythm (12/12 hours).
Food is withheld from the animals for from 20 to 22 hours prior to the operation. They are allowed to take water ad lib. The operation and the perfusion of the liver are carried out using the technique of R. Scholz et al. [Eur. J. Biochem. 38 (1973) 64 to 72]. The perfusion liquid used is Krebs-Henseleit bicarbonate buffer (pH 7.4), which is saturated with an oxygen/carbon dioxide mixture (95/5) and contains 1.6 mmol/liter of L-lactate and 0.2 mmol/liter of pyruvate. The perfusion liquid is pumped into the liver via a cannula inserted into the portal vein. The effluent perfusion liquid is collected via a cannula inserted into the Vena cava. The liver is perfused for about 2 hours. The test compounds are infused for 16 minutes each from the 32nd to the […] after the perfusion in increasing concentrations (0.02 to 1.00 mmol/liter).
Samples of the effluent perfusion liquid are collected at one-minute intervals and analyzed for glucose, lactate and pyruvate (using standard enzymatic methods). The percentages shown in Table VIII relate to the condition occurring before and after the administration of the compounds, the changes caused solely by lactate and pyruvate being set as being equal to 100%.

[7] = Table I, read-out: TQ (LD50/ED50), pancreatic secretion
[8] = Rattus norvegicus, read-out: ED50 pancreatic secretion (dose which brings about an increase in the pancreatic secretion by a maximum of 50%)
[9] = Table VII, read-out: TQ [LD50/ED50], pancreatic secretion
[10] = narcotized rat, i.d., liquid volume, 30 min fraction, Table VII, read-out: ED50 pancreatic secretion (dose which brings about an increase in pancreatic secretion of a maximum of 50%)
[11] = TQ LD50/ED25, antihepatotoxic effect, LD50 mouse i.p. / ED25 rat p.o., Table V
[12] = read-out: ED50 antihepatotoxic effect (shortens hexobarbital narcosis by 50%)
[13] = 0.2 mmole/liter in the perfusate, Table VIII
[14] = Table X, read-out: TQ LD50/ED50, pancreatic secretion
[15] = narcotized rat, i.d., liquid volume, 30 minute fraction, Table X, read-out: ED50 pancreatic secretion (dose which brings about an increase in pancreatic secretion by a maximum of 50%)
[16] = TQ LD50/ED25, antihepatotoxic effect, LD50 mouse i.p. / ED25 rat p.o., Table XI
[17] = TQ LD50/ED50, antihepatotoxic effect, LD50 mouse i.p. / ED50 rat p.o., Table XI
[18] = TQ (LD50/ED50), antihepatotoxic effect, LD50 mouse i.p. / ED50 rat p.o., Table III
[19] = read-out: ED50 antihepatotoxic effect (dose which shortens the hexobarbital narcosis by 50%)

Row | Compound | selectivity ratio [1, 7] | ED50 [2, 8] [mg/kg] | LD50 at 336 h ([3]; mouse, Table I) [mg/kg] | ED25 [5] [mg/kg] | selectivity ratio [1, 14] | ED50 [2, 15] [mg/kg] | selectivity ratio [4, 16] | LD50 at 336 h ([3]; mouse i.p., Table X) [mg/kg] | further results
1 | CC(c1ccccc1)N(CCCCCC(=O)O)C(=O)c1ccc(Cl)cc1 (centres unmarked) [Serial No. 13, N-(p-chloro)benzoyl-6-(1-phenylethylamino)caproic acid] | 110 | 2 | 220 |  |  |  |  |  | 
2 | O=C(O)CCCN(C(=O)c1ccc(Cl)cc1)c1ccc(C2CCCCC2)cc1 [Serial No. 37, 4-[p-chloro-N-(1',2',3',4',5',6'-hexahydrobiphenyl-4-yl)benzamido]butyric acid] |  |  |  | ≤ 10 |  |  |  |  | selectivity ratio [1, 9]: ~100; ED50 [2, 10]: 1.5 mg/kg; selectivity ratio [4, 11]: ≥ 15; LD50 at 336 h ([3]; mouse i.p., Table V): ~150 mg/kg
3 | O=C(O)CCCCN(C(=O)c1ccc(Cl)cc1)c1ccccc1-c1ccccc1 [Serial No. 28, 5-[p-chloro-N-(biphenyl-2-yl)benzamido]valeric acid] |  |  |  | 3 |  |  |  |  | selectivity ratio [4, 11]: 46.7; selectivity ratio ([4]; TQ LD50/ED50, antihepatotoxic effect, LD50 mouse i.p. / ED50 rat p.o., Table V): 11.7; ED50 [5, 12]: 12 mg/kg; LD50 at 336 h ([3]; mouse i.p., Table V): 140 mg/kg; Glucose formation, % change [6, 13]: -89%; ED50 inhibition of formation of glucose from lactate and pyruvate ([6]; Table VIII): 25 mg/L
4 | COc1ccc(Cl)cc1C(=O)N(CCCC(=O)O)c1cccc2ccccc12 [Serial No. 44, 4-{5-chloro-2-methoxy-[N-(α-naphthyl)]benzamido}butyric acid] |  |  |  | ~30 | > 270 | < 1 | ~9 | 270 | 
5 | CC(C)(C)CC(C)(C)N(CCCC(=O)O)C(=O)c1ccc(Cl)cc1 [Serial No. 7, N-(p-chloro)benzoyl-4-[(1,1,3,3-tetramethylbutyl)amino]butyric acid] | 110 | 2 | 220 |  |  |  |  |  | 
6 | O=C(O)CCCCCN(C(=O)c1ccc(Cl)cc1)c1cccc2ccccc12 [compound 48] |  |  |  | ~7 | ~160 | ~1 | ~22.9 | 160 | 
7 | COc1ccc(Cl)cc1C(=O)N(CCCC(=O)O)c1ccccc1-c1ccccc1 [Serial No. 33, 4-[2-methoxy-5-chloro-N-(biphenyl-2-yl)benzamido]butyric acid] |  |  |  |  |  |  |  |  | selectivity ratio [1, 9]: 85; ED50 [2, 10]: 2 mg/kg; LD50 at 336 h ([3]; mouse i.p., Table VII): 170 mg/kg
8 | COc1ccc2cccc(N(CCCC(=O)O)C(=O)c3ccc(Cl)cc3)c2c1 [Serial No. 46, 4-{p-chloro-[N-(7-methoxy-1-naphthyl)]benzamido}butyric acid] |  |  |  | 7 | 400 | 0.3 | 17.1 | 120 | selectivity ratio [4, 17]: 7.5; ED50 [5, 12]: 16 mg/kg
9 | C#CC1(N(CCCC(=O)O)C(C)=O)CCCCC1 [Serial No. 8, N-acetyl-4-[(1-ethynylcyclohexyl-1)-amino]butyric acid] | > 100 | 10 | > 1000 |  |  |  |  |  | 
10 | O=C(O)CCCN(C(=O)c1cccc(C(F)(F)F)c1)c1cccc2ccccc12 [compound 42] |  |  |  |  | > 160 | < 1 |  | 160 | 
11 | CC(=O)N(CCCC(=O)O)c1cccc2ccccc12 [Serial No. 39, 4-[N-(α-naphthyl)acetamido]butyric acid] |  |  |  | < 10 | ~500 | ~1.5 | > 75 | 750 | selectivity ratio [4, 17]: 15; ED50 [5, 12]: 50 mg/kg
12 | O=C(O)CCCN(C(=O)c1ccc(Cl)cc1)C(c1ccccc1)c1ccccc1 [Serial No. 12, N-(p-chloro)benzoyl-4-benzhydrylaminobutyric acid] | ~2500 | ~0.1 | 250 |  |  |  |  |  | selectivity ratio [4, 18]: 25; ED50 [5, 19]: 10 mg/kg
13 | CC(C)C(=O)N(CCCCCC(=O)O)c1ccccc1-c1ccccc1 [Serial No. 34, 6-[N-(biphenyl-2-yl)isobutyramido]caproic acid] |  |  |  | < 30 |  |  |  |  | selectivity ratio [4, 11]: 8.7; LD50 at 336 h ([3]; mouse i.p., Table V): 260 mg/kg
14 | O=C(O)CCCN(C(=O)c1ccc(Cl)cc1)C12CC3CC(CC(C3)C1)C2 [Serial No. 6, N-(p-chloro)benzoyl-4-(1-adamantyl)aminobutyric acid] | 200 | 1 | 200 |  |  |  |  |  | 
15 | O=C(O)CCCN(Cc1ccccc1)C(=O)c1ccc(Cl)cc1 [Serial No. 15, N-(p-chloro)benzoyl-4-benzylaminobutyric acid] | 233 | 1.5 | 350 |  |  |  |  |  | 
16 | O=C(O)CCCCCN(C(=O)c1ccc(Cl)cc1Cl)c1ccccc1-c1ccccc1 [Serial No. 29, 6-[2,4-dichloro-N-(biphenyl-2-yl)benzamido]caproic acid] |  |  |  |  |  |  |  |  | selectivity ratio [1, 9]: ~147; ED50 [2, 10]: 1.7 mg/kg; LD50 at 336 h ([3]; mouse i.p., Table VII): ~250 mg/kg; Glucose formation, % change [6, 13]: -93%; ED50 inhibition of formation of glucose from lactate and pyruvate ([6]; Table VIII): 23 mg/L
17 | O=C(O)CCCN(C(=O)c1ccc(Cl)cc1)C1CCCCCCC1 [Serial No. 18, N-(p-chloro)benzoyl-4-cyclooctylaminobutyric acid] | 60 | 2.5 | 150 |  |  |  |  |  | selectivity ratio [4, 18]: 18.8; ED50 [5, 19]: 8 mg/kg
18 | O=C(O)CCCCN(C(=O)c1ccc(Cl)cc1)c1cccc2ccccc12 [Serial No. 47, 5-{p-chloro-[N-(α-naphthyl)]benzamido}valeric acid] |  |  |  |  | 85 | 2 |  | 170 | Glucose formation, % change ([6]; 0.2 mmol/liter in the perfusate, Table XIII): -86%; ED50 inhibition of formation of glucose from lactate and pyruvate ([6]; Table XIII): 31 mg/L
19 | O=C(O)CCCN(C(=O)c1ccc(Cl)cc1Cl)c1cccc2ccccc12 [Serial No. 41, 4-{2,4-dichloro-[N-(α-naphthyl)]benzamido}butyric acid] |  |  |  | 10 | 32 | 7.5 | 24 | 240 | selectivity ratio [4, 17]: 9.2; ED50 [5, 12]: 26 mg/kg
20 | CC(=O)N(CCCC(=O)O)C1CCCc2ccccc21 (centres unmarked) [compound 49] |  |  |  | < 10 | ≥ 40 | ~5 | > 20 | > 200 | 
